From patent US8143025B2, “Antibodies against vascular endothelial growth factor receptor-1” (ImClone LLC, priority 2004, dated 2012) come the findings set out here.

“Also recorded” adds a separate entry of the source.

In experiment [1] the test system is DLD-I xenograft. Kind of experiment: DLD-I colon cancer xenograft. The note with it: monotherapy, FIG. 26B. The format is in vivo, mouse. The method, then:
Female athymic nu/nu mice, 6-8 weeks of age, were injected subcutaneously on the lateral dorsal surface with 0.4 mL volume of a suspension containing a human tumor cell line in media, diluted 1:1 with MATRIGEL™ (BD Biosciences). The cell lines used in xenograft models, with the cell doses indicated in parenthesis (10^6 cells/mouse), were: human colon carcinoma cell lines DLD-I (5), GEO (5) and HT-29 (5); human breast carcinoma cell lines DU4475 (2), MDA-MB-231 (5), MDA-MB-435 (5), and BT474 (5). When tumors reached approximately 200-300 mm^3, mice were randomized by tumor size and divided into treatment groups. Tumor growth was evaluated approximately twice weekly, with tumor volume calculated as π/6* (Length*Width^2), where Length=longest diameter and Width=diameter perpendicular to Length. Tumor dimensions were measured with calipers. T/C % was calculated as 100*(Final Treatment Tumor Volume/Initial Treatment Tumor Volume)/(Final Control Tumor Volume/Initial Control Tumor Volume).
18F1 was diluted in 0.9% USP saline (Braun) or phosphate buffered saline (PBS) and administered intraperitoneally in a volume of 0.5 mL per mouse. The effect of treatment on tumor growth was analyzed using repeated measures analysis of variance (RM ANOVA), p<0.05 was considered significant.

The target in experiment [2] is VEGFR-I (Homo sapiens, UniProt P17948). Description: VEGFR-I phosphorylation assay, BT474 cells. The format is cell-based. Also on record: endogenous in cells; host or cells: BT474 human breast carcinoma cells. The note with it: BT474 breast cancer cells, compared to untreated control, FIG. 11. On the procedure:
Confluent porcine aorta endothelial VEGFR-I expressing (PAE-VEGFR-I) cells and BT474 human breast carcinoma cells were cultured in serum-depleted F12 medium for 48 hours. The cells were then preincubated with anti-VEGFR-I antibody clone 18F1 at concentrations ranging from 0.1 to 30 μg/ml for 1 hour followed by stimulating with VEGF or PlGF for 5 minutes at 37° C. The cells were then rinsed with ice-cold PBS and lysed in lysis buffer (50 mM HEPES, 150 mM NaCl, 1% Triton X-100, and 10% glycerol containing 1 mM phenylmethylsulfonyl fluoride, 10 μg/ml aprotinin, 10 μg/ml leupeptin, and 1 mM sodium vanadate). Cell lysates were subjected to SDS-PAGE and transferred onto Immobilon membranes (Millipore Corp. Billerica, Mass.). […]
Autophosphorylation of the VEGFR-I induced by its ligands and resulting activation of a classical MAPK, extracellular signal-regulated protein kinases 1Z2 (ERK1Z2) and the PBK/Atk downstrean signaling pathways mediate cellular biological responses such as proliferation, motility, survival, and differentiation. The ability of an anti-VEGFR-1 antibody to inhibit phosphorylation of VEGFR-I and activation of ERK1 Z2 and the Akt kinases downstream signaling were determined by using the PAE-VEGFR-I transfectant and BT474 breast carcinoma cells. […]

Experiment [3] deals with Akt. Description: Akt phosphorylation Western blot, BT474 cells. Format: cell-based, human. The note with it: BT474 breast cancer cells, FIG. 15. On the procedure: Autophosphorylation of the VEGFR-I induced by its ligands and resulting activation of a classical MAPK, extracellular signal-regulated protein kinases 1Z2 (ERK1Z2) and the PBK/Atk downstrean signaling pathways mediate cellular biological responses such as proliferation, motility, survival, and differentiation. The ability of an anti-VEGFR-1 antibody to inhibit phosphorylation of VEGFR-I and activation of ERK1 Z2 and the Akt kinases downstream signaling were determined by using the PAE-VEGFR-I transfectant and BT474 breast carcinoma cells.
For evaluation of MAPK and Akt phosphorylation, BT474 cells were seeded at a density of 5×10^5/well in 12 well plates in serum-free conditions for 18 hours. Cells were treated at 37° C. with anti-VEGFR-1 antibody clone 18F1 or isotype control for 1 hour and then incubated with 50 ng/ml of VEGF or 100 ng/ml of PlGF for 5-10 minutes. Cell lysis, protein isolation and electroblotting were performed. Membranes were incubated with antibodies against phosphorylated p44/p42 MAP kinases (Thr202/Tyr204, Santa Cruz Biotechnology, Santa Cruz, Calif.) or phosphorylated Akt (Ser473, Cell Signaling Technology, Beverly, Mass.), at a concentration of 1 μg/ml, followed by incubation with a secondary IgG-HRP (1:5000). […]
(In general: A western blot detects proteins with antibodies after separation by electrophoresis.)

Sequence of VEGFR-I (P17948 27-1338): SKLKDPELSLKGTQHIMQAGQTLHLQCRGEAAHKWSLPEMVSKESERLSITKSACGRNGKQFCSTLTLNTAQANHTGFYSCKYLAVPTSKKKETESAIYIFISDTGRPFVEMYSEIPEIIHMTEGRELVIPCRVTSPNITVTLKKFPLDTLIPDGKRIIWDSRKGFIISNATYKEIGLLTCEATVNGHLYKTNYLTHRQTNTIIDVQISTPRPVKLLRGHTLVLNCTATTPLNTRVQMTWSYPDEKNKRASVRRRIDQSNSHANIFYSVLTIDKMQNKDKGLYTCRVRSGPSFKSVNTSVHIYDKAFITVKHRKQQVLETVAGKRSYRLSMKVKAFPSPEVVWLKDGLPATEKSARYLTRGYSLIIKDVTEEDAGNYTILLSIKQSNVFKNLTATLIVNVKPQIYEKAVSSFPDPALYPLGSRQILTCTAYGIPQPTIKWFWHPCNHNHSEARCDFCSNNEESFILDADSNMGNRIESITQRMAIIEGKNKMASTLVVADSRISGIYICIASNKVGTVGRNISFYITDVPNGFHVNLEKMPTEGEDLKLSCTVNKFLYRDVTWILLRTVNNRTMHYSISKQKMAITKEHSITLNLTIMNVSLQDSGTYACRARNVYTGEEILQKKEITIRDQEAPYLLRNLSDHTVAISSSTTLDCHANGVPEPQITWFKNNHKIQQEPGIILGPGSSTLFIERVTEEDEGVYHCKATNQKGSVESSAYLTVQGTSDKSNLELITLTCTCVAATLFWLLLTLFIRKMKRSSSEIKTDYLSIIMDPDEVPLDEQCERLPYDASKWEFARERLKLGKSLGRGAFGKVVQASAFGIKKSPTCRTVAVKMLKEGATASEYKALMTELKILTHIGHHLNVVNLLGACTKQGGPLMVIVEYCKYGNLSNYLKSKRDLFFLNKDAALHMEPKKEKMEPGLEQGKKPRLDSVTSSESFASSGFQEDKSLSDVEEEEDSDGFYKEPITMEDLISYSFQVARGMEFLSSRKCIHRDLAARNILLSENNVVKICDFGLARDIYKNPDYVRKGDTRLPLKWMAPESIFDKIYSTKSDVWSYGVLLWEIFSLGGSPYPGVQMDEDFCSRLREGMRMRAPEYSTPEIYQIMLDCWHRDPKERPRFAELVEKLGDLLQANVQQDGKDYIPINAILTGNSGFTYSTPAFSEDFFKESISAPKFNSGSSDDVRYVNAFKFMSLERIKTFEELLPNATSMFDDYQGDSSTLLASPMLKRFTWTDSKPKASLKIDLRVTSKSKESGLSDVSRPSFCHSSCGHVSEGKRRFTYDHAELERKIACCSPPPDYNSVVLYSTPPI

On to “18F1: human anti-VEGFR-1 monoclonal antibody clone; VL SEQ ID NO: 16, VH SEQ ID NO: 20 [Clone 18F1]”, for which the “antitumor effect against DLD-I colon cancer xenografts” value in experiment [1] was “significant antitumor effect”. The “PlGF or VEGF-stimulated phosphorylation of VEGFR-I” value in experiment [2] was “significantly reduced; also recorded: inhibition”. Moreover, the “PlGF or VEGF-stimulated phosphorylation of Akt” value in experiment [3] was “significantly blocked”.
